Series [1] deals with Endothelial cells (HUVEC). Briefly: Attachment and growth of endothelial cells on or in substrates and milieus. The class given is cell-based. As to the method:
In order to test the ability of HA-LN-gel to support the attachment and growth of endothelial cells, several experiments were conducted:
Endothelial cells (HE4 split #1), grown on gelatin, were collected by 0.25% trypsin-EDTA digestion. HUVEC were counted and 1.35×10^6 cells were divided into treatment groups. The cells were seeded in triplicates into 12-well plates at a concentration of 50,000 cells per well. The treatment groups were as follows: • 1. Cells seeded on the plastic • 2. Cells seeded on gelatin coating • 3. Cells seeded on HA (1 ml)+medium (0.5 ml) coating. Each well was coated with ˜0.2 ml • 4. Cells (150,000) seeded in HA (1 ml)+medium (0.5 ml). 0.5 ml per well. • 5. Cells seeded on gelatin and after attachment (24 hours) covered with HA+medium (as above, coated with 0.5 ml per well) • 6. Cells seeded on Laminin coating • 7. Cells seeded on HA-LN-gel coating (0.9 ml HA, 0.1 ml Laminin, 0.4 ml medium). Coating was with ˜0.2 ml per well • 8. Cells (150,000) seeded in HA-LN-gel (as in g) • 9. Cells seeded on gelatin and after attachment (24 hours) covered with HA-LN-gel (as in g above)
The morphology of the seeded cells was monitored microscopically every day.
Therefore the above experiment was repeated using 10% of the laminin concentration. Endothelial were seeded in 12 well plates in triplicates (50000 cell/well) as follows: • 1. Cells on gelatin coating as control. • 2. Cells on HA-LN-gel (10% of the usual concentration of laminin) coating. • 3. Cells in HA-LN-gel (10% of the usual concentration of laminin) • 4. Higher concentration of cells (100,000/well) in HA-LN-gel (10% of the usual concentration of laminin).

Series [2] concerns neuronal cells dissociated from brains of 14-16 days rat embryos. Briefly: Rat embryonic brain cells cultured in enriched HA-LN-gel with antioxidants / protective agents. Conditions: for most effective dose: agent added to enriched HA-LN-gel before culturing the cells, AA tested at 1 mM, 330 μM, 100 μM, NAC at 0.1, 1, 10 μM; for neuronal sprouting: first 24-48 hours of culture in the enriched gel, versus untreated control cultures. Type of series: cell-based. The method, then:
Neuronal cells were manually dissociated from brains of 14-16 days rat embryos. Cells were embedded in the HA-LN-gel, which was enriched as described herein above. NAC and AA were obtained from SIGMA (Cat. No. 616-91-1 and […]; Lot 108H00575 and 096H02811, respectively). Pifithrin-α, cyclic (Calbiochem, Cat No. 506134, lot:B41595) is a very stable analog of pifithrin-α, with reduced cytotoxicity. NAC, AA and Pifithrin-α cyclic were added to the HA-LN-gel (enriched with neural growth factors) prior to culturing of cells. Culture medium was changed twice a week. All the experiments contained control cultures (without treatment of NAC or AA or Pifithrin-α. 5-7 experiments were performed in 12 wells, in triplicates. Dissociated brain cells were attached to DE53 cylindrical, positively charged microcarriers (MCs), and suspended in brain medium for 4-17 days ([…] 1990 Methods in Neur 2:195-209). The floating cell-MC aggregates were transferred (using fine spatula, under a stereo microscope) into HA-LN-gel enriched with the indicated growth factors or Antioxidants. During one month of daily observations the following differences (which were more pronounced in the stationary MC-cultures) were observed: […]

As for “laminin: adhesive glycoprotein; Murine LN-1 obtained from Sigma”, the “morphology and attachment of cells seeded on the coating” value in series [1] (50,000 cells per well, 12-well plates, usual laminin concentration, monitored microscopically every day) was “appeared round and did not attach well to the substrate”. For the same compound, in series [1] (cells seeded on the coating), the “toxicity to endothelial cells as substrate coating” value is “toxic”. The “toxic effects on EC, overall finding of first experiment” value in series [1] (laminin alone or as a component of the HA-LN-gel, at the concentration examined) was “some toxic effects”.
In the case of `CC(=O)N[C@@H](CS)C(=O)O` [N-acetyl-L-cysteine], in series [2], the most effective dose was 10 µM and the neuronal sprouting result is “stimulated intensive sprouting”.
With `Cc1ccc(-c2cn3c4c(sc3n2)CCCC4)cc1` [Pifithrin-α, cyclic], the “effectiveness compared between concentrations” value in series [2] (100 and 200 nM versus 2 μM) is on record as “more effective”. Also, the neuronal sprouting entry in series [2] was “stimulated intensive sprouting”.
In the case of `O=C1O[C@H]([C@@H](O)CO)C(O)=C1O` [Ascorbic acid], the “effectiveness of the tested concentrations” value in series [2] (1 mM, 330 μM or 100 μM applied to the cell cultures) was “effective”. In series [2], the most effective dose came to 330 µM and the neuronal sprouting result is “stimulated intensive sprouting”.

The record behind these values is patent US20060024373A1, “Cross-linked hyaluronic acid-laminin gels and use thereof in cell culture and medical implants” (priority 2000, published 2006).
